Test results from paper PMC3575809 (Nucleic Acids Research, 2012).

Assays:
[1] = molecular target: T1, Mtb DnaG (Mycobacterium tuberculosis, UniProt P9WNW1); format: biochemical; conditions: 10 µM inhibitor (Figure 3); gel, Figures 3 and 9
T1 sequence (P9WNW1 1-639): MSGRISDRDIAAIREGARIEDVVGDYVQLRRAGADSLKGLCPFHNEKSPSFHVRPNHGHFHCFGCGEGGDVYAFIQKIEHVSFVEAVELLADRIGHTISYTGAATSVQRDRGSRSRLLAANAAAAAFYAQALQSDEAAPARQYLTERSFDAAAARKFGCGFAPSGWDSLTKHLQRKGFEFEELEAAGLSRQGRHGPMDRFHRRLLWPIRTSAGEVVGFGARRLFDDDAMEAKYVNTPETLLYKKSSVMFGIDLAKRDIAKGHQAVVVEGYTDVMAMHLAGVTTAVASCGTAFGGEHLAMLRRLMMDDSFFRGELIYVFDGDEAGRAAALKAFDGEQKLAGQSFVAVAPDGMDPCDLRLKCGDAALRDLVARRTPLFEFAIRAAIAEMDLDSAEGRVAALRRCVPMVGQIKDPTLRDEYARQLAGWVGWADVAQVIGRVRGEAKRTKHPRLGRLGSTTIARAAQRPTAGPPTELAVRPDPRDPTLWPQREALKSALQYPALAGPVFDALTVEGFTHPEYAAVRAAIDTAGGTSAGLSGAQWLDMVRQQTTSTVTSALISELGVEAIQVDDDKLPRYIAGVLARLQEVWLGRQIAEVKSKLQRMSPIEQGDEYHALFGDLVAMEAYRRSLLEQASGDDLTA

[2] = molecular target: T1, Mtb DnaG; test: Mode of inhibition assays; format: biochemical; conditions: for mode of inhibition: Lineweaver–Burk plots, varied NTP and DNA; for n, number of inhibitor molecules bound: alternative model with high cooperativity; for n, number of binding sites on Mtb DnaG: global fit, non-cooperative model
[3] = molecular target: T1, Mtb DnaG; test: Dose–response coupled primase–pyrophosphatase assay; conditions: for Hill coefficient: dose–response fit, 1.25 µM DNA, 110 µM NTP, 0.5 µM Mtb DnaG
[4] = molecular target: T1, Mtb DnaG; format: biochemical; conditions: for signal change in HTS: 13 µM compound, not enzyme activation but phosphate from the compound
[5] = test system: human DNA polymerase α; conditions: cited from earlier work
[6] = test system: human primase; conditions: cited from earlier work
[7] = molecular target: T2, Mtb DnaG (DNA primase) (Mycobacterium tuberculosis H37Rv, UniProt P9WNW1 1-639); test: fluorescence anisotropy
T2 sequence: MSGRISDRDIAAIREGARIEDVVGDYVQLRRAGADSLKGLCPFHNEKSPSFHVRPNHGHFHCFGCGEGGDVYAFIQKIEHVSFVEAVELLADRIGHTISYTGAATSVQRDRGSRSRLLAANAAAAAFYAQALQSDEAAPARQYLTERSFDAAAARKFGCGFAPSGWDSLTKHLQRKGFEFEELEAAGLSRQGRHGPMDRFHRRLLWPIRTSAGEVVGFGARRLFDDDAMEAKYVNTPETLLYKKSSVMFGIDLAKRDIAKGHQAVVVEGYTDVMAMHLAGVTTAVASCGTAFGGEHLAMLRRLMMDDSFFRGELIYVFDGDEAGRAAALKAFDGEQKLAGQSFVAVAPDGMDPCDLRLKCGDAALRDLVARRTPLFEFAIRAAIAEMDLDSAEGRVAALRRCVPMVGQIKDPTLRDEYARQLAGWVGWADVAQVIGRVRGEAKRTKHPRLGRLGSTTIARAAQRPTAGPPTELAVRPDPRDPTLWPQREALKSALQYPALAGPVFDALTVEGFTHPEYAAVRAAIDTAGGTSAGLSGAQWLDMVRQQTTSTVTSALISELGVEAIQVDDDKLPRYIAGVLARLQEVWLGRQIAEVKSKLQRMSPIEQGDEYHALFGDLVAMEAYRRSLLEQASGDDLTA

COc1cccc2c1C(=O)c1c(O)c3c(c(O)c1C2=O)C[C@@](O)(C(=O)CO)C[C@@H]3O[C@H]1C[C@H](N)[C@H](O)[C@H](C)O1 [doxorubicin]
effect on synthesis of radioactively labelled RNA products [1]: potent Mtb DnaG inhibitors | Ki [2]: 2.5 ± 0.5 µM | mode of inhibition [2]: competitive inhibitors with respect to both NTP and DNA | n, number of inhibitor molecules bound [2]: 2 | n, number of binding sites on Mtb DnaG [2]: 3 | IC50 [3]: 7.7 ± 0.5 µM | Hill coefficient [3]: 2.0 ± 0.2

CC(C)N(CCC(C(N)=O)(c1ccccc1)c1ccccn1)C(C)C (stereo not shown) [disopyramide phosphate]
signal change in HTS [4]: increase in absorbance

O=c1oc2c(O)c(O)cc3c(=O)oc4c(O)c(O)cc1c4c23 [ellagic acid]
IC50 [3]: 22 ± 3 µM

CO[C@H]1C[C@H](O[C@H]2[C@H](C)[C@@H](O[C@@H]3O[C@H](C)C[C@H](N(C)C)[C@H]3O)[C@@H](C)C[C@@]3(CO3)C(=O)[C@H](C)[C@@H](O)[C@@H](C)[C@@H](C)OC(=O)[C@@H]2C)O[C@@H](C)[C@@H]1O [oleandomycin phosphate]
signal change in HTS [4]: increase in absorbance

O=C(O)CN(CCN(CC(=O)O)CC(=O)O)CC(=O)O [EDTA, ethylenediaminetetraacetic acid]
inhibition by positive control in HTS [4]: full inhibition

O=C(O)c1ccccc1OP(=O)(O)O [fosfosal]
signal change in HTS [4]: increase in absorbance

Cc1ccc(C(=O)Nc2ccc(S(=O)(=O)O)c3cc(S(=O)(=O)O)cc(S(=O)(=O)O)c23)cc1NC(=O)c1cccc(NC(=O)Nc2cccc(C(=O)Nc3cc(C(=O)Nc4ccc(S(=O)(=O)O)c5cc(S(=O)(=O)O)cc(S(=O)(=O)O)c45)ccc3C)c2)c1 [suramin]
effect on synthesis of radioactively labelled RNA products [1]: potent Mtb DnaG inhibitors | Ki [2]: 3.2 ± 0.5 µM | mode of inhibition [2]: competitive inhibitors with respect to both NTP and DNA | n, number of inhibitor molecules bound [2]: 3 | n, number of binding sites on Mtb DnaG [2]: 4 | mode of inhibition [5]: DNA- and NTP-competitive inhibitor of human DNA polymerase α and primase, respectively | IC50 [3]: 6.3 ± 0.2 µM | Hill coefficient [3]: 2.9 ± 0.1 | mode of inhibition [6]: DNA- and NTP-competitive inhibitor of human DNA polymerase α and primase, respectively

CCGAATCAGTCCGACGACGCATCAGCAC (ssDNA) [28-mer ssDNA]
Kd [7]: 0.036 ± 0.016 µM
